{
  "source": "patent US20240299393A1",
  "about": "“SMALL MOLECULE DISRUPTORS OF PROTEIN INTERACTIONS IN HISTONE DEACETYLASE COMPLEXES” (Dana-Farber Cancer Institute, Inc., priority 2021, published 2024)",
  "key": {"[1]": {"experiment": "Tolerability of chronic treatment in mice", "type": "in vivo", "details": "50 mg/kg I.P. daily for 10 days", "procedure": "For the pilot RT-qPCR experiment, in addition to the vehicle condition (ethanol 100%/kolliphor/saline 0.9% in a proportion of 1:1:14.4; for the 50 mg/kg dose, 14 μL NaOH 1M were also added), three doses (mg/kg) of E6R were tested: 5, 15, and 50, with 4 (vehicle) or 3 (E6R) animals per group. A dose of 50 mg/kg was picked to conduct further experiments. For the RNA-Seq experiment, E6R was dissolved in a vehicle solution containing saline 55% v/v, DMSO 34% v/v, ethanol 5% v/v, kolliphor EL (Sigma-Aldrich, MO, USA) 5% v/v, NaOH 1M 1% v/v. The vehicle group received the same solution. Animals were injected daily by intraperitoneal (I.P.) injection with 5 μL/g of the solution (50 mg/kg of the drug or vehicle) at 11 am for 10 days. Animal wellness was verified by daily visual inspection and weighing. […] On the 11th day, animals were sacrificed by bleeding via heart puncture under carbon dioxide anesthesia. The brains were quickly removed and the bilateral frontal cortex (bregma 1.90 to 1.40 mm) was dissected followed by total RNA extraction. The spleens were also collected in the pilot RT-qPCR experiments."}, "Sin3 occupancy": {"biological_target": "T1, Sin3 occupancy (Saccharomyces cerevisiae, UniProt P22579)", "T1 construct": "expressed in transfected cells; host or cells: S. cerevisiae JOY116 (sin3Δ) transformed with YEplac181-Sin3-(HA)3", "T1 sequence (P22579 whole entry)": "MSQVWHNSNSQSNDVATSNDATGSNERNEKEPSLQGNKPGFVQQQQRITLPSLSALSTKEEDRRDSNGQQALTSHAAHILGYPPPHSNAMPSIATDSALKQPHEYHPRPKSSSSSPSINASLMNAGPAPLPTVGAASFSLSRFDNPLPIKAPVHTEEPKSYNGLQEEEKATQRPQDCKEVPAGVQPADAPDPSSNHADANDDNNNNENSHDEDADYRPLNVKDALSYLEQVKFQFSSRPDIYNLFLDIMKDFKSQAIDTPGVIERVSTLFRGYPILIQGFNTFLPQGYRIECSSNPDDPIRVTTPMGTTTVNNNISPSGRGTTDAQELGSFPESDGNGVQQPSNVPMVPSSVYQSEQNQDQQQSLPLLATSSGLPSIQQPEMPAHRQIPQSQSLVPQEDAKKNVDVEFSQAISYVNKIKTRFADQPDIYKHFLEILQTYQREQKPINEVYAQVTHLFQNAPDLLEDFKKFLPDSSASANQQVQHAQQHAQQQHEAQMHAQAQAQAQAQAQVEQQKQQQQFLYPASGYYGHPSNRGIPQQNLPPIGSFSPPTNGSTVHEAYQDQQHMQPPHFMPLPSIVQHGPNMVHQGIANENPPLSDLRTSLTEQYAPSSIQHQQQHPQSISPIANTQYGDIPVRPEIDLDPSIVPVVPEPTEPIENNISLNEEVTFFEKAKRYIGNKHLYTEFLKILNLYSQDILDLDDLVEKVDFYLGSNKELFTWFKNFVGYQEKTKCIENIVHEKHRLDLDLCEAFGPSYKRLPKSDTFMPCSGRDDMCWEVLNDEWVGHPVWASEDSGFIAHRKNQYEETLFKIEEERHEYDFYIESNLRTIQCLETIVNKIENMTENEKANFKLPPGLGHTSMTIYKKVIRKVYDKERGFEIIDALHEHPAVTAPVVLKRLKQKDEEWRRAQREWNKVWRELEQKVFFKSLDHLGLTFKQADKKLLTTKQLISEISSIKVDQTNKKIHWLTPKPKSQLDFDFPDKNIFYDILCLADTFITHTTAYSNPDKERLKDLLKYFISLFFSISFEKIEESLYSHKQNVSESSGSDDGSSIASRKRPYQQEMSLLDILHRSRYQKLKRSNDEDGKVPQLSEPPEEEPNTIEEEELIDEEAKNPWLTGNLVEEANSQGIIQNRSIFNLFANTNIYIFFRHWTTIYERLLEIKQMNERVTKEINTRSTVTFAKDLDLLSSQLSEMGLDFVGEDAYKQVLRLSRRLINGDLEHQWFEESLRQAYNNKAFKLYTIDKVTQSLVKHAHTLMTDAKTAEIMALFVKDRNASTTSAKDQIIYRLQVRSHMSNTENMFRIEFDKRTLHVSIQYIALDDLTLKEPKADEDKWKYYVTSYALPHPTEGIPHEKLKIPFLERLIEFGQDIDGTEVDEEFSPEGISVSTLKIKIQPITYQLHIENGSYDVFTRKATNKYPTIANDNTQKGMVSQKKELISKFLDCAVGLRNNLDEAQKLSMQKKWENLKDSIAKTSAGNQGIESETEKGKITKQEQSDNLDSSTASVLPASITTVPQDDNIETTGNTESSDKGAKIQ", "experiment": "ChIP-qPCR and ChIP-seq of Sin3-(HA)3 in yeast", "type": "cell-based, S. cerevisiae", "details": "for Sin3 occupancy at URS-URA3 and INO1 (ChIP-qPCR) / number of genes with decreased Sin3 occupancy (ChIP-seq): 400 μM; for Sin3 occupancy at URS-URA3 and INO1 (ChIP-qPCR): 2 h; for number of genes with decreased Sin3 occupancy (ChIP-seq) / number of genes with reduced Sin3 occupancy (ChIP-seq): of 545 Sin3-occupied genes; for number of genes with decreased Sin3 occupancy (ChIP-seq): FIG. 5D; for number of genes with reduced Sin3 occupancy (ChIP-seq): FIG. 5K", "procedure": "ChIP procedures in yeast were adapted from previously established protocols, with minor modifications [Sertil et al 2007, Jezek et al 2017, Barski et al 2007]. Briefly, yeast S. cerevisiae JOY116 (sin3Δ) cells transformed with the YEplac181-Sin3-(HA)3 plasmid were cultured in liquid SC-L, until OD600 nm reached ˜0.7. […] (200 rpm). After 2 h of incubation, cells were treated with 1% formaldehyde for 20 min at 4° C. for cross-linking. Then, 125 mM glycine was applied for 5 min at room temperature to quench cross-linking. Yeast cells were centrifuged (10 min at 1,000 g), and the resulting pellets were washed twice with 50 mL ice-cold phosphate-buffered saline (PBS). Yeast pellets were resuspended in 500 μL of ChIP lysis buffer (50 mM HEPES-KOH pH 7.5, 140 mM NaCl, 1 mM EDTA, 1% Triton X-100, 0.1% sodium deoxycholate, 0.1% SDS, and yeast protease inhibitors). After that, 500 μL of the yeast suspensions in lysis buffer were mixed with 500 μL of zirconia beads in a screw-top microcentrifuge tube. For cell lysis, the tubes were vortexed at maximum speed for 15 min at 4° C. Cell lysates were collected by punching a hole on the bottom of the screw-cap tube, with a sterile needle, and centrifuging the lysates into new Eppendorf tubes. Then, 300 μL of lysates were added into 1.5 mL Bioruptor Pico microtubes with caps (Diagenode, cat #C30010016), and subsequent sonication was conducted with a Bioruptor Pico sonication device, in the following conditions: 30 s/3 cycles on, and 30 s/3 cycles off, at 4° C. The sonicated lysates were cleared by 30 min centrifugation at maximum speed at 4° C. The resulting cleared lysates, with sheared chromatin, were saved, snap freezed, and stored at −80° C. until use. Next, 10 μL cleared lysates were reverse-cross linked overnight, at 65° C., in the presence of proteinase K. Phenol-chloroform extractions and EtOH precipitations were then applied to purify the sheared DNA. DNA agarose gel running and DNA concentration measurements with a NanoDrop spectrophotometer were finally conducted to assess the size and yield of the sheared DNA, respectively.\nFor the pull-downs, 25 μg of sheared chromatin from each sample were diluted (1:10) in ice-cold dilution buffer (1% Triton X-100, 2 mM EDTA, 20 mM Tris-HCl pH 8, 150 mM NaCl, and yeast protease inhibitors), and mixed with 10 μg ChIP-grade anti-HA (Abcam, cat #ab9110), or isotype control anti-IgG (Abcam, cat #ab171870) antibodies. Then, 50 μL of pre-washed Dynabeads Protein G for Immunoprecipitation (ThermoFisher, cat #10003D) were added to each individual sample. Chromatin immunoprecipitation was performed by incubating samples at 4° C. overnight, under gentle shaking (300 rpm). The day after, the Dynabeads were washed three times with 1 mL ice-cold wash buffer (0.1% SDS, 1% Triton X-100, 2 mM EDTA, 20 mM Tris-HCl pH 8, 150 mM NaCl), and then once with 1 mL ice-cold final wash buffer (0.1% SDS, 1% Triton X-100, 2 mM EDTA pH 8, 20 mM Tris-HCl pH 8, 500 mM NaCl), using a magnetic rack. DNA was eluted with 120 μL elution buffer (1% SDS, 100 mM NaHCO3), by incubating samples at 30° C. for 15 min. For input, 10 μL of sheared cell lysates were added to 110 μL of elution buffer. Then, 4 μL proteinase K were added to the eluted DNA or inputs, and reverse-cross linking was achieved by incubating samples overnight at 65° C. After overnight incubation, phenol-chloroform extractions and EtOH precipitations were conducted to purify ChIP-DNA. The ChIP-DNA was eluted in a total volume of 200 μL ddH2O, and then used for ChIP-qPCR or ChIP-Seq. Briefly, for ChIP-qPCR, 4 μL of eluted ChIP-DNA were mixed with 5 μL of PowerUp SYBR Green master mix (Applied Biosystems, cat #A25743), and 1 μL of the primer mix (forward+reverse; 3 μM final concentration), for a total volume of 10 μL. Two technical replicates were generated for each DNA sample from three ChIP replicates. ChIP-DNA samples were then transferred into the 384-well skirted PCR plate (Applied Biosystems, cat #4343370). […]"}, "[2]": {"test_system": "cycloheximide (CYH) sensitivity", "experiment": "Yeast cycloheximide sensitivity at 37° C.", "type": "cell-based, S. cerevisiae", "procedure": "For assessment of cycloheximide (CYH) sensitivity at 37° C., yeast cells with the cyh2^R genotype (FIG. 29) were first transformed with an empty pDEST-AD-TRP1-CYH2 plasmid (FIG. 30) before running the different experiments. Selection of the plasmid was maintained by culturing cells in SC-W medium."}},
  "note": "Entries after “also recorded” stand apart in the source; their conditions may differ.",
  "data": [
    {"compound": "C[C@@H](NC(=O)c1c(O)n2ccccc2nc1=O)c1ccccc1", "note": "[E6R, 4-hydroxy-2-oxo-N—((R)-1-phenylethyl)-3,4-dihydro-2H-pyrido[, 2-a]pyrimidine-3-carboxamide]", "values": [
      {"measurement": "tolerability, behavior and body mass", "setting": "[1]", "result": "No abnormal behavior or significant body mass decrease (>5%); also recorded: well-tolerated"}
    ]},
    {"compound": "CC(NC(=O)c1c(O)n2ccccc2nc1=O)c1ccccc1", "note": "(racemic) [E6]", "values": [
      {"measurement": "Sin3 occupancy at URS-URA3 and INO1 (ChIP-qPCR)", "setting": "Sin3 occupancy", "result": "significantly decreased; also recorded: decreased occupancy"},
      {"measurement": "number of genes with decreased Sin3 occupancy (ChIP-seq)", "setting": "Sin3 occupancy", "result": 360, "unit": "genes"},
      {"measurement": "Sin3 occupancy at INO1, IME2 and CAR1 (ChIP-Seq traces)", "setting": "Sin3 occupancy; not at SPO3 or TRK2", "result": "reduced"},
      {"measurement": "number of genes with reduced Sin3 occupancy (ChIP-seq)", "setting": "Sin3 occupancy", "result": 450, "unit": "genes"}
    ]},
    {"compound": "CC(/C=C/C(=O)NO)=C\\[C@@H](C)C(=O)c1ccc(N(C)C)cc1", "note": "[TSA, trichostatin A]", "values": [
      {"measurement": "CYH sensitivity", "setting": "[2]", "result": "induced"},
      {"measurement": "Sin3 occupancy at URS-URA3 and INO1 (ChIP-qPCR)", "setting": "Sin3 occupancy", "result": "appeared to prevent recruitment of Sin3; also recorded: decreased occupancy"},
      {"measurement": "number of genes with decreased Sin3 occupancy (ChIP-seq)", "setting": "Sin3 occupancy", "result": 142, "unit": "genes"},
      {"measurement": "number of genes with reduced Sin3 occupancy (ChIP-seq)", "setting": "Sin3 occupancy", "result": 295, "unit": "genes"}
    ]}
  ]
}
